Measurements reported in patent publication US7538233B2, “Coumarins as iNOS inhibitors” (Aventis Pharmaceuticals Inc., priority 2003, dated 2009).

Legend:
Format in all cases: biochemical
Human NOS-2 = Human NOS-2 (Homo sapiens, UniProt P35228); assay: Human NOS-2 assay ([3H]-arginine to [3H]-citrulline conversion); conditions: 60 min at 37° C., 2.5 μM L-[3H]arginine; * mean of 3, ** mean of 2 determinations; read-out: Human iNOS, IC50
Rat NOS-1 (nNOS) = target: T1, Rat NOS-1 (nNOS) (Rattus norvegicus, UniProt P29476); assay: Rat NOS-1 (nNOS) assay ([3H]-arginine to [3H]-citrulline conversion); conditions: recombinant rat nNOS, 20 min at 37° C., 2 μM L-[3H]arginine; * mean of 3 determinations
T1 construct: purchased Cayman Chemical 60870; host or cells: Baculovirus / Sf9 cells
T1 sequence (P29476 whole entry): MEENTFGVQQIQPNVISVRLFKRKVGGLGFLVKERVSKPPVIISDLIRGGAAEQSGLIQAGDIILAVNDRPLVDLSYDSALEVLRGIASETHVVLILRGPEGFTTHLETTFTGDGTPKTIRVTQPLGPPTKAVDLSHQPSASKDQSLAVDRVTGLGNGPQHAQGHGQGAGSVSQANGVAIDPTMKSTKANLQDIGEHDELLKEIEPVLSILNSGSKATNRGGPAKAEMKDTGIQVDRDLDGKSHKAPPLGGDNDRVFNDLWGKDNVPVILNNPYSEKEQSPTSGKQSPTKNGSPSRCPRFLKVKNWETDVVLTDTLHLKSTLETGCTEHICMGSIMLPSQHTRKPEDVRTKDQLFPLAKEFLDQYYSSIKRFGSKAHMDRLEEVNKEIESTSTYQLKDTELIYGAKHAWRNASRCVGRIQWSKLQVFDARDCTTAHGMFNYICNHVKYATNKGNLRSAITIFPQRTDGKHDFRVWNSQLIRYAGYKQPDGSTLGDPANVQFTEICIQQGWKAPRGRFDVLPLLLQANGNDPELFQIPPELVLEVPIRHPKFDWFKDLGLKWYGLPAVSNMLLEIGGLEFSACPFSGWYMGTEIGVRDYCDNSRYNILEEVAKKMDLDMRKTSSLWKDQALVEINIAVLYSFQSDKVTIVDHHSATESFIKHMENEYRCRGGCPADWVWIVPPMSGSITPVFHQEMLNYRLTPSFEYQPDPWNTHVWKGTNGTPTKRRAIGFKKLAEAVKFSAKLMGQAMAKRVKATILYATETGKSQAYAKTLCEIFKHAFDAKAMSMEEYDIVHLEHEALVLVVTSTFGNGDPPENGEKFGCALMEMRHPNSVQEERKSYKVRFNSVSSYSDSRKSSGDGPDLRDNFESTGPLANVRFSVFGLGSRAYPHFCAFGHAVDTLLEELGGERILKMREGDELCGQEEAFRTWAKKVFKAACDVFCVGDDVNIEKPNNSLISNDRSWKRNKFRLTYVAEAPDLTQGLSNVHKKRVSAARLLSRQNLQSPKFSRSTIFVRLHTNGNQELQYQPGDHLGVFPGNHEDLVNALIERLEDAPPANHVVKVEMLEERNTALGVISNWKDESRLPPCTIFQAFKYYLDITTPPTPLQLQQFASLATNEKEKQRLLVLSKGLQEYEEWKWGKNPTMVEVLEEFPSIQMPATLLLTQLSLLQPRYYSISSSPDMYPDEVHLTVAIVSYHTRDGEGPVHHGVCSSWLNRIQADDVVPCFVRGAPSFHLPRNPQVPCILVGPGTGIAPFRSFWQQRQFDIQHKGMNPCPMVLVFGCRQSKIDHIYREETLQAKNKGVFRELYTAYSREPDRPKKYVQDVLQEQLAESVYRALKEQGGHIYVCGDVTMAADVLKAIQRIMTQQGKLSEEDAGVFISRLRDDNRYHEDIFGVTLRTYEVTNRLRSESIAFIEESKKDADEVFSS

Bovine NOS-3 (eNOS) = target: T2, Bovine NOS-3 (eNOS) (Bos taurus, UniProt P29473); assay: Bovine NOS-3 (eNOS) assay ([3H]-arginine to [3H]-citrulline conversion); conditions: recombinant bovine NOS-3, 120 min, 10 μM L-[3H]arginine; ** mean of 2 determinations
T2 construct: purchased Cayman Chemical 60880; host or cells: Baculovirus / Sf9 cells
T2 sequence (P29473 2-1205): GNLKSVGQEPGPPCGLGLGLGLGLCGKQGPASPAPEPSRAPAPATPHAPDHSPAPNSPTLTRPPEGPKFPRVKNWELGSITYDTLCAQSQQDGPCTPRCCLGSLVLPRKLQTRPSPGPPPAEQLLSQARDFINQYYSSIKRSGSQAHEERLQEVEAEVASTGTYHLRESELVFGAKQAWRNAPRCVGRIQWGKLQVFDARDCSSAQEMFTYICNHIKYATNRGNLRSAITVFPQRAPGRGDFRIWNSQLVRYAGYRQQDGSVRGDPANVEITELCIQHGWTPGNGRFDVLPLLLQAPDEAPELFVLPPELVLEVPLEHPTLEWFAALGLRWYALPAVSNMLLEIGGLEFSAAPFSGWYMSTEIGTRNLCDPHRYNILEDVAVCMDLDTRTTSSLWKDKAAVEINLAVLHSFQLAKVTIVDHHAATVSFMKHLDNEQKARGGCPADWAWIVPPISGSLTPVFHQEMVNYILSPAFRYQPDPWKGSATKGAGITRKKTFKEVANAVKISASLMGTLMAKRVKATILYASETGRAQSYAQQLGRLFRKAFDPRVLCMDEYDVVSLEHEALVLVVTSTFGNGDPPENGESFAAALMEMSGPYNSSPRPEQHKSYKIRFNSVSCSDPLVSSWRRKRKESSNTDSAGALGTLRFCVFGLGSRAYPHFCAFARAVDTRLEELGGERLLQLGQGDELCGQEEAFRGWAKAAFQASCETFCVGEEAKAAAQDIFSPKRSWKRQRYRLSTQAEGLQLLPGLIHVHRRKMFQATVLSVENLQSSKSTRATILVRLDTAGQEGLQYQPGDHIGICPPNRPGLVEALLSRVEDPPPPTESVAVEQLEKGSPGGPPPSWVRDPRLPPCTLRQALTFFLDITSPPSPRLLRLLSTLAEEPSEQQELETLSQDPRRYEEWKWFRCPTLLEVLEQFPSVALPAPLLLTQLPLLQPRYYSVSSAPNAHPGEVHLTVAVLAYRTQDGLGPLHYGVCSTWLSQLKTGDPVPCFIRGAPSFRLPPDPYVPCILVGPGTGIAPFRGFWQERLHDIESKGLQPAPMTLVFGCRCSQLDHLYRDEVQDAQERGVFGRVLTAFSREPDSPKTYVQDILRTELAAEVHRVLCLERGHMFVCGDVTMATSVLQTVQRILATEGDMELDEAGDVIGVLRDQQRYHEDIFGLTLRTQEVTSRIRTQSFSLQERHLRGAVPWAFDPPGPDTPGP

Murine NOS-2 (iNOS) = target: T3, Murine NOS-2 (iNOS) (Mus musculus, UniProt P29477); assay: Murine NOS-2 (iNOS) assay ([3H]-arginine to [3H]-citrulline conversion); conditions: recombinant murine NOS-2, 20 min at 37° C., 10 uM L-[3H]arginine; ** mean of 2 determinations
T3 construct: purchased Cayman Chemical 60864; host or cells: E. coli
T3 sequence (P29477 whole entry): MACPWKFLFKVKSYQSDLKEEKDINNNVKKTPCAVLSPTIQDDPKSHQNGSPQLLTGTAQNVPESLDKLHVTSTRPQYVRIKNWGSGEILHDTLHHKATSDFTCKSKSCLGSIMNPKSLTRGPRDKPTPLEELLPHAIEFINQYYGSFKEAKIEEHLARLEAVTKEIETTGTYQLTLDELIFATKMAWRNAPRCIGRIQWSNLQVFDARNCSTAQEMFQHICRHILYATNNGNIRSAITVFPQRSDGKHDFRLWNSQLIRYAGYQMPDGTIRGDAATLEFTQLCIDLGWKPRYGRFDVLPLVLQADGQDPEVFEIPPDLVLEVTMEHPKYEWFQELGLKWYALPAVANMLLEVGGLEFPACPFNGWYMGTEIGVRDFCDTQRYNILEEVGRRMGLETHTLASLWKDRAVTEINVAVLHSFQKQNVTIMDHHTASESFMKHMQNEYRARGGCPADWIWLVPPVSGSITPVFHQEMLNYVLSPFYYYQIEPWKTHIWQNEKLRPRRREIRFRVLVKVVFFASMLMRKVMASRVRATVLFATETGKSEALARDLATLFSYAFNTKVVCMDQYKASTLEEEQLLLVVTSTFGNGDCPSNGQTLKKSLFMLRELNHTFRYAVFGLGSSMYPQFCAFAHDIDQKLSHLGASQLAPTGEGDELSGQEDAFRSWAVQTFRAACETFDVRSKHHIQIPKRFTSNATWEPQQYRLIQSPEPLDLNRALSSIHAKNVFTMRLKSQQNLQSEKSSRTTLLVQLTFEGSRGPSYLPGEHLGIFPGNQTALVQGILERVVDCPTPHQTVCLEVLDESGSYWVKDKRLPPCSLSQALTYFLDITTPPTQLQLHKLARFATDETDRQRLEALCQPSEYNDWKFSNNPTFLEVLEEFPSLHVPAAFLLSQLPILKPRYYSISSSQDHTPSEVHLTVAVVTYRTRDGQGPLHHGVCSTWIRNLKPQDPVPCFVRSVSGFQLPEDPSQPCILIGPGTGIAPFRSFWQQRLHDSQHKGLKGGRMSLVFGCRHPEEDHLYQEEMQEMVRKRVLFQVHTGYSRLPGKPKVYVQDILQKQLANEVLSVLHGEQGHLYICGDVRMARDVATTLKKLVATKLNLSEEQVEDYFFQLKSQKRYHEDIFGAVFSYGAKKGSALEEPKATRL

Sequence of Human NOS-2 (P35228 whole entry): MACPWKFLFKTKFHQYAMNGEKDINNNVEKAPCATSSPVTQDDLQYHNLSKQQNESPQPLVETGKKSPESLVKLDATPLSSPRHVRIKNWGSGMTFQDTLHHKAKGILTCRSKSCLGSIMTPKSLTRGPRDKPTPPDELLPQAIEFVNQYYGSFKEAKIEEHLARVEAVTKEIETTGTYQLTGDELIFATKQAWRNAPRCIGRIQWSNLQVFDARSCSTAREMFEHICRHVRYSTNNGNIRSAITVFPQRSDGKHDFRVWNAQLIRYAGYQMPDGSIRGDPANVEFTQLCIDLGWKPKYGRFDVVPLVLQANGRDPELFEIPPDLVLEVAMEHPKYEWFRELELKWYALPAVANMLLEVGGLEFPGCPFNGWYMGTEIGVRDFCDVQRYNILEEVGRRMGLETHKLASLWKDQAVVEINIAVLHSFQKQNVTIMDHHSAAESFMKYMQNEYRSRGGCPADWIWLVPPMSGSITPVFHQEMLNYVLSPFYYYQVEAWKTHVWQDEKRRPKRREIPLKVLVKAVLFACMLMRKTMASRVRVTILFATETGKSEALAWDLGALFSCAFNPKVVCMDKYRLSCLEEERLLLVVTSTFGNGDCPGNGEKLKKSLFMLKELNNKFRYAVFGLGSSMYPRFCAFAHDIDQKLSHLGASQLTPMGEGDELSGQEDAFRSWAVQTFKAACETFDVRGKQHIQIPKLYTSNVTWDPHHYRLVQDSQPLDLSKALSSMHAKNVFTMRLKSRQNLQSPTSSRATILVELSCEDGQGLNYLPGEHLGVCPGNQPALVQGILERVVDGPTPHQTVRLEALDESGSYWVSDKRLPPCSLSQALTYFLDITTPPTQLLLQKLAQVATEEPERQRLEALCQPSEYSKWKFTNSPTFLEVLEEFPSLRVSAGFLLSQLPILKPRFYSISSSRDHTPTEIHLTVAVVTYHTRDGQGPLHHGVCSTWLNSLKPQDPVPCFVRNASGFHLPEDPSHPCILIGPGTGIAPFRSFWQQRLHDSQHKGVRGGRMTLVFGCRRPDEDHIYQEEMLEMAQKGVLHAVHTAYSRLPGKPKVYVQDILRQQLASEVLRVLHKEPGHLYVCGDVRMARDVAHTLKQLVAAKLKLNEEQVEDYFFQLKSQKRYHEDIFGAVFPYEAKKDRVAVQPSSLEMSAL

| IC50 (Human NOS-2) [nM] | IC50 (Rat NOS-1 (nNOS)) [nM] | IC50 (Bovine NOS-3 (eNOS)) [µM] | IC50 (Murine NOS-2 (iNOS)) [nM] | SMILES |
| --- | --- | --- | --- | --- |
| 3600 | – | – | – | NCCCCc1cc(=O)oc2ccc(Cl)cc12 [Example 57, 4-(4-Aminobutyl)6-chloro-1-benzopyran-2-one] |
| 100 | 360 | > 10 | 140 | NCCCOc1cc(=O)oc2ccc(Br)cc12 [Example 11, 4-(3-Amino-propoxy)-6-bromo-1-benzopyran-2-one] |
| 110 | 530 | > 10 | 250 | CNCCCOc1cc(=O)oc2ccc(Cl)cc12 [Example 3, 6-Chloro-4-(3-methylamino-propoxy)-1-benzopyran-2-one] |
| 94 | 560 | > 10 | 60 | NCCCOc1cc(=O)oc2ccc(Cl)cc12 [Example 1, 6-Chloro-4-(3-aminopropoxy)-1-benzopyran-2-one] |
| 1300 | – | – | – | NCCCCCOc1cc(=O)oc2ccc(Cl)cc12 [Example 32, 4-(5-Amino-pentyloxy)-6-chloro-1-benzopyran-2-one] |
| 4700 | > 10000 | > 10 | 3000 | Cc1ccc2oc(=O)cc(OCCCN(C)C)c2c1 [Example 23, 4-(3-Dimethylamino-propoxy)-6-methyl-1-benzopyran-2-one] |
| 510 | 500 | > 10 | 390 | N=C(N)NCCCOc1cc(=O)oc2ccc(Cl)cc12 [Example 28, N-[3-(6-Chloro-2-oxo-2H-1-benzopyran-4-yloxy)-propyl]guanidine] |
| 1100 | 1600 | > 10 | 440 | NCCCOc1cc(=O)oc2ccc(F)cc12 [Example 12, 4-(3-Amino-propoxy)-6-fluoro-1-benzopyran-2-one] |
| 2000 | 1000 | > 10 | 4200 | O=c1cc(OCCC2CCCCN2)c2cc(Cl)ccc2o1 (stereo not drawn) [Example 34, 6-Chloro-4-(2-piperidin-2-yl-ethoxy)-1-benzopyran-2-one] |
| 4000 | > 10000 | > 10 | > 10000 | CN(C)CCCOc1cc(=O)oc2ccccc12 [Example 2, 4-(3-Dimethylamino-propoxy)-1-benzopyran-2-one] |
| 7600 | 9100 | > 10 | 7400 | NCCCOc1cc(=O)oc2ccccc12 [Example 19, 4-(3-Amino-propoxy)-1-benzopyran-2-one] |
| – | – | – | 1500 | O=c1cc(OCC2CCCNC2)c2cc(Cl)ccc2o1 (stereo not drawn) [Example 33, 6-Chloro-4-(piperidin-3-ylmethoxy)-1-benzopyran-2-one] |
| 4100 | 8000 | > 10 | 1200 | CN(C)CCCOc1cc(=O)oc2ccc(Cl)cc12 [Example 22, 6-Chloro-4-(3-dimethylamino-propoxy)-1-benzopyran-2-one] |
| 300 | 650 | > 10 | 300 | Cc1ccc2oc(=O)cc(OCCCN)c2c1 [Example 14, 4-(3-Amino-propoxy)-6-methyl-1-benzopyran-2-one] |

| SMILES | IC50 (Human NOS-2) [nM] | IC50 (Rat NOS-1 (nNOS)) [nM] | IC50 (Bovine NOS-3 (eNOS)) [µM] | IC50 (Murine NOS-2 (iNOS)) [nM] |
| --- | --- | --- | --- | --- |
| NCCCCOc1cc(=O)oc2ccc(Cl)cc12 [Example 31, 4-(4-Amino-butoxy)-6-chloro-1-benzopyran-2-one] | 2000 | > 10000 | > 10 | 1000 |
